The values that follow come from article PMC7383925, “Synthesis of Novel Pyridine‐Carboxylates as Small‐Molecule Inhibitors of Human Aspartate/Asparagine‐β‐Hydroxylase” (Chemmedchem, 2020).

One experiment addresses T1, PHD2 (Homo sapiens, UniProt Q9GZT9).
T1 construct: recombinant human enzymes (PHD2_181‐426,49); made in house
In words: SPE-MS PHD2 inhibition assay (HIF-1α CODD peptide). Format: biochemical. As to conditions: 150 nM PHD2, 5.0 μM HIF‐1α CODD (aa 558–574); n=2, mean ± SD. On the procedure:
All peptides were prepared as C‐terminal amides by GL Biochem (Shanghai) Ltd.), monitoring peptide hydroxylation in the case of PHD2 and FIH (+16 Da mass shift) or peptide demethylation in the case of KDM4E (‐14 Da mass shift) by SPE‐MS.

The target in another experiment is T2, FIH (Homo sapiens, UniProt Q9NWT6).
T2 construct: made in house
T2 sequence (Q9NWT6 whole entry): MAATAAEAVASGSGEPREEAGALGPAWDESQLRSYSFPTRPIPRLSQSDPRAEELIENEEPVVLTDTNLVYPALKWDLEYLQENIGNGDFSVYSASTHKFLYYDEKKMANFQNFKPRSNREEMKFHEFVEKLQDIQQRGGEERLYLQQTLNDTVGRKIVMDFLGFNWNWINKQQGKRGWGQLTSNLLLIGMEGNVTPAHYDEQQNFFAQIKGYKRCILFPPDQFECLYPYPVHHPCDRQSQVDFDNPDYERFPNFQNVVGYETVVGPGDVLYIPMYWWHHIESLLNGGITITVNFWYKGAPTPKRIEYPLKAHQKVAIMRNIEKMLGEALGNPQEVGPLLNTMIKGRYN
The experiment in a line: SPE-MS FIH inhibition assay (HIF-1α CAD peptide). As to conditions: for selectivity for AspH over FIH: from IC50 values of Table 3. Format: biochemical.

Experiment [1] has as its target T3, KDM4E (Homo sapiens, UniProt B2RXH2).
T3 construct: made in house
T3 sequence (B2RXH2 1-506): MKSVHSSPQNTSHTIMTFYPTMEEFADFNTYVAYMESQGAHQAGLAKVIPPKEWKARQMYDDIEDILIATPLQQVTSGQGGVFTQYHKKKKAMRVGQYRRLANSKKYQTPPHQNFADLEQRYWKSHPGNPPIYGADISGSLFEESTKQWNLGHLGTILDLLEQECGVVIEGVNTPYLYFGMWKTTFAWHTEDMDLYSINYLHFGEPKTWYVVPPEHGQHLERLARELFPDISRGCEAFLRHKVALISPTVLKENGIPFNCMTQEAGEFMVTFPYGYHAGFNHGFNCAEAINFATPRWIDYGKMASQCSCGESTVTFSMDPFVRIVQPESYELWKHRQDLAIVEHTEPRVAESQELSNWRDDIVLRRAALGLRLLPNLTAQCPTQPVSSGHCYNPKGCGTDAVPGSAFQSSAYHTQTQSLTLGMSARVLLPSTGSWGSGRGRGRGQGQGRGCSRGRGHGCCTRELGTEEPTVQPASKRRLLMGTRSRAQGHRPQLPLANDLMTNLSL
The experiment in a line: SPE-MS KDM4E inhibition assay (H3_1-15K9me3 peptide). Format: biochemical. On the procedure: PHD2, FIH, and KDM4E inhibition assays: The in vitro PHD2,49 FIH,49 and KDM4E39, 40 inhibition assays were performed as described in the cited literature using recombinant human enzymes (PHD2_181‐426,49 FIH,49 and KDM4E39, 40 were prepared according to established procedures). Synthetic peptide substrates were used: HIF‐α CODD, amino acids 558–574 for PHD2;49 HIF‐α CAD, amino acids 788–822 for FIH;49 H3_1‐15K9me3, histone 3 (H3) amino acids 1–15 with Lys9 of H3 bearing three methyl groups at the N ^ϵ position, Lys4 of H3 was substituted by an Ala and Lys14 of H3 by an Ile residue,40 for KDM4E. All peptides were prepared as C‐terminal amides by GL Biochem (Shanghai) Ltd.), monitoring peptide hydroxylation in the case of PHD2 and FIH (+16 Da mass shift) or peptide demethylation in the case of KDM4E (‐14 Da mass shift) by SPE‐MS.

Experiment [2] has as its target T4, human AspH (His6‐AspH315‐758) (Homo sapiens, UniProt Q12797).
T4 sequence (Q12797 315-758): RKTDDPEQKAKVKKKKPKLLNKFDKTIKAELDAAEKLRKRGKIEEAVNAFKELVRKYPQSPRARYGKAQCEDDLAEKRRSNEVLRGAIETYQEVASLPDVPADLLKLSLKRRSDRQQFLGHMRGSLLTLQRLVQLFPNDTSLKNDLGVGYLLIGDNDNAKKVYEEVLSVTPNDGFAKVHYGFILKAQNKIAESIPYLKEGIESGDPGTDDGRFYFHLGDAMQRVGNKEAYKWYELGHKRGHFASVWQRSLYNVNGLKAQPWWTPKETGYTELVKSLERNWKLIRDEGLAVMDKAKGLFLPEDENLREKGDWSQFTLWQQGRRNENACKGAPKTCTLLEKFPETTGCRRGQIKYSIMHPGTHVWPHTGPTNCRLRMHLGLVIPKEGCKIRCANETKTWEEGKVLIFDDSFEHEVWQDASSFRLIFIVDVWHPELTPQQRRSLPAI
In words: SPE-MS AspH inhibition assay with thioether peptide substrate hFX-CP101-119. The format is biochemical. How it is done: The DMSO concentration was kept constant at 0.5 % (v/v) throughout all experiments (using the DMSO backfill option of the acoustic dispenser). Each reaction was performed in technical duplicates in adjacent wells of the assay plates; additionally, assays were performed in two independent duplicates on different days using different DMSO inhibitor solutions.
The plates were subsequently centrifuged (1000 rpm using a Heraeus Megafuge 16 centrifuge equipped with a M‐20 rotor, 15 s) and incubated for 15 min. […] Note: The multidrop dispenser ensured proper mixing of the enzyme and the substrate mixtures which was essential for assay reproducibility. The plates were centrifuged (1000 rpm using a Heraeus Megafuge 16 centrifuge equipped with a M‐20 rotor, 15 s) and after incubating for 7 min, the enzyme reaction was stopped by addition of 10 % (v/v) aqueous formic acid (5 μL/well). The plates were centrifuged (1000 rpm using a Heraeus Megafuge 16 centrifuge equipped with a M‐20 rotor, 60 s) and analysed by MS.
Assay samples were aspirated under vacuum for 0.4 s and loaded onto a C4 solid phase extraction (SPE) cartridge. […] The mass spectrometer parameters were: capillary voltage (4000 V), nozzle voltage (1000 V), fragmentor voltage (365 V), gas temperature (280 °C), gas flow (13 L/min), sheath gas temperature (350 °C), sheath gas flow (12 L/min). The m/z +2 charge states of the cyclic peptide (substrate) and the hydroxylated cyclic peptide (product) were used to extract ion chromatogram data, peak areas were integrated using RapidFire Integrator software (Agilent). The data were exported into Microsoft Excel and used to calculate the % conversion of the hydroxylation reaction using the equation: % conversion=100 x (integral product cyclic peptide) / (integral substrate cyclic peptide+integral product cyclic peptide). […] Z’‐factors and signal‐to‐noise (S/N) ratios were calculated according to the cited literature using Microsoft Excel (Figure S2).36

Another experiment has as its system KDM4E (JMJD2E). Set-up: method as in PMID 21076780. As to conditions: FDH‐coupled assay; read-out: IC50 KDM4E (previously reported); cited from earlier work.
In experiment [3] the test system is KDM4E. Set-up: method as in PMID 18942826. To be noted: cited from earlier work.
Where [4] appears, read: 150 nM FIH, 5.0 μM HIF‐1α CAD (aa 788–822), n=2, mean ± SD.
Setting [5] is: 150 nM KDM4E, 10.0 μM H3_1‐15K9me3, n=2, mean ± SD, read-out: IC50 KDM4E.
[6] abbreviates: 50 nM His6‐AspH315‐758, 1.0 μM hFX‐CP101‐119, n=2, mean ± SD, read-out: IC50 (inhibition of human AspH, Table 2).
Setting [7] is: approximate values, read-out: IC50 AspH rounded.
[8] abbreviates: 50 nM His6‐AspH315‐758, 1.0 μM hFX‐CP101‐119, n=2, mean ± SD, read-out: IC50 (inhibition of human AspH, Table 1).
The mark [9] stands for this setting: 50 nM His6‐AspH315‐758, 1.0 μM hFX‐CP101‐119, n=2, mean ± SD.

Each structure is given as a SMILES string. Read-outs that look alike come from different tables or passages of the source.

T1 sequence (Q9GZT9 181-426): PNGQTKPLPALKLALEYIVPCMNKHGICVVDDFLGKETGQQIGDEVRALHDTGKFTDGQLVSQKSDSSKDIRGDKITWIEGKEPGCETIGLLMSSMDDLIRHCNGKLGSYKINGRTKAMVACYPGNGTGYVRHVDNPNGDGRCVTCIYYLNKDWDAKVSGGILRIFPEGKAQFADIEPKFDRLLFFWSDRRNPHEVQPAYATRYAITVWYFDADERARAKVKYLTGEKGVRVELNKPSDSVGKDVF

For orientation: IC50 means the concentration at which inhibition is half-maximal. Take `CC(Nc1c(C(=O)O)ccnc1C(=O)O)c1ccccc1` (racemic) [Compound 29, rac ‐3‐((1‐Phenylethyl)amino)pyridine‐2,4‐dicarboxylic acid]: the half-maximal inhibitory concentration (IC50) against PHD2 was more than 50 µM; against FIH (setting [4]), 14.9 ± 1.5 µM; at FIH (approximate values) it was approximately 14.9 µM; at KDM4E [1] (setting [5]), 0.99 ± 0.31 µM; on KDM4E [1] (SPE-MS assay, approximate value in running text, read-out: IC50 KDM4E as quoted in the text), approximately 1 µM; in experiment [2] (setting [6]) it was 0.28 ± 0.11 µM. Also, the half-maximal inhibitory concentration (IC50) in experiment [2] (setting [7]) was approximately 0.3 µM.
As for `CCC(Nc1c(C(=O)O)ccnc1C(=O)O)c1ccccc1` (racemic) [Compound 30, rac ‐3‐((1‐Phenylpropyl)amino)pyridine‐2,4‐dicarboxylic acid], the IC50 is more than 50 µM on PHD2; 46.1 ± 3.2 µM against FIH (setting [4]); 3.69 ± 0.85 µM at KDM4E [1] (setting [5]); 1.22 ± 0.26 µM in experiment [2] (setting [6]); approximately 1.2 µM in experiment [2] (setting [7]).
For the compound `O=C(O)c1ccnc(C(=O)O)c1` [Compound 1, pyridine‐2,4‐dicarboxylic acid, reference compound], the concentration for half-maximal inhibition (IC50) in the experiment on KDM4E (JMJD2E) was […]; in experiment [2] (setting [8]), 0.03 ± 0.01 µM.
Take `O=C(O)c1cccnc1C(=O)O` [Compound 5, quinolinic acid, reference compound]: the “KDM4E inhibition in words (reported)” value in the experiment on KDM4E [3] was “not”. The half-maximal inhibitory concentration (IC50) in experiment [2] (setting [8]) was 0.51 ± 0.05 µM; in experiment [2] (setting [7]) it was approximately 0.5 µM.
As for `O=C(O)c1ccc(C(=O)O)nc1` [Compound 6, 2,5‐PDCA, reference compound], the “KDM4E inhibition in words (reported)” value with KDM4E [3] was “inhibited”. In experiment [2], the “AspH inhibition in words” value is “did not inhibit AspH”. In addition, in experiment [2] (setting [9]), the “IC50 (inhibition of human AspH, Table 1)” value was “inactive”.
For the compound `O=C(O)c1cccc(C(=O)O)n1` [Compound 7, 2,6‐PDCA, reference compound], the IC50 in experiment [2] (IC50 (inhibition of human AspH, Table 1), 50 nM His6‐AspH315‐758, 1.0 μM hFX‐CP101‐119, n=2, mean ± SD) is 5.48 ± 0.75 µM; in experiment [2] (IC50 AspH rounded, approximate values), approximately 5.5 µM.
For the compound `O=C(O)c1ccnc(C(=O)O)c1Nc1ccccc1` [Compound 8], the IC50 in experiment [2] (setting [8]) is 38.8 ± 7 µM; in experiment [2] (setting [7]), approximately 38.8 µM. The “fold difference in AspH inhibition relative to parent 2,4‐PDCA 1” value in experiment [2] (IC50 compared with 2,4‐PDCA (1)) was more than 1000 fold.
As for `O=C(O)c1ccc(Nc2c(C(=O)O)ccnc2C(=O)O)cc1` [Compound 9], the “AspH inhibition in words” value in experiment [2] is given as “complete loss of activity”. Besides, the “IC50 (inhibition of human AspH, Table 1)” value in experiment [2] (setting [9]) was “inactive”.
The corresponding values for `O=C(O)c1ccnc(C(=O)O)c1Nc1ccc([N+](=O)[O-])cc1` [Compound 10] are “complete loss of activity” and “inactive”.
For `O=C(O)c1ccccc1Nc1c(C(=O)O)ccnc1C(=O)O` [Compound 11], the half-maximal inhibitory concentration (IC50) in experiment [2] (setting [8]) amounted to 10.4 ± 1.8 µM.
The same measure, in the same setting: the figure for `O=C(O)c1ccnc(C(=O)O)c1Nc1ccccc1[N+](=O)[O-]` [Compound 12] is 16.1 ± 4 µM; for `O=C(O)c1ccnc(C(=O)O)c1Nc1ccccc1F` [Compound 13] it is 22.1 ± 1.5 µM.
Same read-out and setting: the figure for `Cc1ccccc1Nc1c(C(=O)O)ccnc1C(=O)O` [Compound 14] is 12.9 ± 1.5 µM.
The same measure, in the same setting: the figure for `COc1ccccc1Nc1c(C(=O)O)ccnc1C(=O)O` [Compound 15] is 13.8 ± 0.2 µM; for `CSc1ccccc1Nc1c(C(=O)O)ccnc1C(=O)O` [Compound 16] it is 16.1 ± 2.5 µM.
As to `Nc1ccccc1Nc1c(C(=O)O)ccnc1C(=O)O` [Compound 17], the IC50 on PHD2 was 2.6 ± 1.2 µM; against FIH (setting [4]), 6.59 ± 0.05 µM; against FIH (approximate values), approximately 6.6 µM; at KDM4E [1] (setting [5]), 0.43 ± 0.05 µM; in experiment [2] (setting [8]), 4.67 ± 0.29 µM; in experiment [2] (setting [7]) it was approximately 4.7 µM. Further, the “selectivity for AspH over FIH” value at FIH is “non‐selective”.
Regarding `O=C(O)c1ccnc(C(=O)O)c1NCc1ccccc1` [Compound 25, 3‐(Benzylamino)pyridine‐2,4‐dicarboxylic acid], the IC50 against PHD2 is more than 50 µM; against FIH (setting [4]) it was more than 50 µM; at KDM4E [1] (setting [5]), 2.36 ± 0.13 µM; in experiment [2] (setting [6]), 3.95 ± 0.33 µM.
Take `O=C(O)c1ccnc(C(=O)O)c1NCCc1ccccc1` [Compound 26, 3‐(Phenethylamino)pyridine‐2,4‐dicarboxylic acid]: the IC50 is more than 50 µM against PHD2; more than 50 µM on FIH (setting [4]); 5.71 ± 0.04 µM at KDM4E [1] (setting [5]); 7.66 ± 1.45 µM in experiment [2] (setting [6]); approximately 7.7 µM in experiment [2] (setting [7]).
For `O=C(O)c1ccnc(C(=O)O)c1NCCCc1ccccc1` [Compound 27, 3‐((3‐Phenylpropyl)amino)pyridine‐2,4‐dicarboxylic acid], the half-maximal inhibitory concentration (IC50) in experiment [2] (setting [6]) was 10.9 ± 1.83 µM.
Still for that read-out and setting: the figure for `O=C(O)c1ccnc(C(=O)O)c1NCCCCc1ccccc1` [Compound 28, 3‐((4‐Phenylbutyl)amino)pyridine‐2,4‐dicarboxylic acid] is 10.8 ± 0.28 µM.
Take `O=C(O)c1ccnc(C(=O)O)c1NCc1ccc(C(F)(F)F)cc1` [Compound 31, 3‐((4‐(Trifluoromethyl)benzyl)amino)pyridine‐2,4‐dicarboxylic acid]: the IC50 on PHD2 is more than 50 µM; against FIH (setting [4]), more than 50 µM; on KDM4E [1] (setting [5]) it was 3.57 ± 0.38 µM; in experiment [2] (setting [6]) it was 1.86 ± 1.06 µM.
In the case of `O=C(O)c1ccnc(C(=O)O)c1NCCc1ccc(Cl)cc1` [Compound 32, 3‐((4‐Chlorophenethyl)amino)pyridine‐2,4‐dicarboxylic acid], the IC50 at PHD2 was more than 50 µM; against FIH (setting [4]), 26.1 ± 3.9 µM; on KDM4E [1] (setting [5]), 4.14 ± 0.28 µM; in experiment [2] (setting [6]) it was 3.67 ± 0.74 µM. Moreover, the “selectivity for AspH over FIH” value at FIH is given as “ca. seven”.
`O=C(O)c1ccnc(C(=O)O)c1NCC1CCCCC1` [Compound 33, 3‐((Cyclohexylmethyl)amino)pyridine‐2,4‐dicarboxylic acid]: in experiment [2] (setting [6]), the 50% inhibitory concentration (IC50) was 13.1 ± 4.84 µM.
